Data published in patent US10265303B2, “Hyperphenylalaninemia and treatments thereof” (BERGEN TEKNOLOGIOVERFØRING AS, priority 2015, dated 2019).
Substitutions are numbered along the chain they refer to.

Tests used:
hPAH = target: T1, hPAH (Homo sapiens, UniProt P00439); test: SPR screening and affinity determination on immobilized hPAH (Biacore T200); format: binding; settings: for Kd: SPR, 25° C., compound 0-500 μM in 5% DMSO, affinities said to be overestimated, relative KD reliable, read-out: KD (μM) ± SER
T1 sequence (P00439 1-452): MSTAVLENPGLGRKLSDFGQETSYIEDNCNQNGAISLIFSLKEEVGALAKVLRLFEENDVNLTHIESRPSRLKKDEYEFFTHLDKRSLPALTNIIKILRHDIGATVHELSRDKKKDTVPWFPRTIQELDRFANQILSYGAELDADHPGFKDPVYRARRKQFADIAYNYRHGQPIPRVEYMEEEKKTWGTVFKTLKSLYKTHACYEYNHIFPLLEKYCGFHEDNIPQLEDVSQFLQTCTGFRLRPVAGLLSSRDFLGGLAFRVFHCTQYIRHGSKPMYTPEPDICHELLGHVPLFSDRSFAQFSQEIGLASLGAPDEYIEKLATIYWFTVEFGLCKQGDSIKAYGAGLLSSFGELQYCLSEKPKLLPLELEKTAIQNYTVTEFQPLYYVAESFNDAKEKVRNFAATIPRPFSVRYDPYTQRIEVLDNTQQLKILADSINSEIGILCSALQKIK
Experimental: For detailed determination of binding affinity of Compound 53 and derivatives (FIG. 4) SPR was performed on a Biacore T200 (GE Healthcare Life Sciences) at a temperature of 25° C. A hPAH solution at 0.08 μg/μl in a final volume of 200 μl in acetate buffer pH 5.0 was immobilized onto series S sensor chip CM5 by the standard amine coupling procedure at a flow rate of 30 μl/min and PBS-P+ buffer as running buffer aiming for RU 20000. After the coupling reaction the surface of the sensor chip was washed to eliminate unbound species with HBS buffer (0.01 M NaHepes pH 7.4, 0.15 M NaCI) at steady flow of 20 μl/min for 1 hour until the baseline drift was around 0.05 RU/s; note that an early injection of 40 μl dithiothreitol (DTT) 10 mM in HBS allowed for this reduced washing time.
For the screening, compounds were assayed at a concentration of 200 μM, with 5% DMSO in duplicates, including negative controls with 5% DMSO, positive controls, with 200 μM BH2 and solvent correction was also performed. For KD calculations, a compound concentration 0-500 μM (in 5% DMSO) were applied at otherwise analogous experimental design and analyses were performed using Biacore T200 Evaluation Software, version 2.0 (GE Healthcare Life Sciences).
All the responses from the compounds of the screening were subjected to blank subtraction (negative control 5% DMSO), molecular weight adjustment and solvent correction to account for differences in bulk response. Next a cut-off value for the screening was selected based on the response of the positive control of our experiments: RU BH2+3*SD (2.88+3*1.79=8.27). In this manner, from the 11 derivatives of Compound 53 tested (see FIG. 4) we weeded out those compounds with a lower response than 8.27, namely #53.2, #53.9 and #53.11.
In addition and for the rest of the compounds which continued our workflow, binding affinities were determined and the results are shown in the following table. The selected conditions to measure affinity are selected for high throughput measurements, but the affinities are overestimated though the relative KD for the different compounds are reliable.

human wild-type PAH [1] = target: T2, human wild-type PAH (Homo sapiens, UniProt P00439); test: PAH activity in lysates of HEK293 cells permanently expressing human wild-type PAH; format: cell-based; settings: 1% DMSO, 8 h; for PAH activity-cells (%): 0.04 mg/ml compound, Table 3; for increase of hPAH activity with respect to the control (FIG. 6): average compound concentration 144.9 μM
T2 construct: expressed in transfected cells
T2 sequence (P00439 1-452): T1 sequence (P00439 1-452)
Experimental: (§1) Human embryonic kidney cells (HEK293; Life Technologies™) permanently expressing WT-hPAH, prepared with the Flp-In system (Life Technologies™) were kindly provided by Per Knappskog, Haukeland University Hospital. About 1 million cells were grown in DMEM medium containing 4.5 g/l glucose, 10% (v/v) fetal calf serum, 0.25 mg/ml gentamycine, 2 mM L-glutamine and 50 μg/ml hygromycin B, and after 24 h medium was changed and the test compounds were added at a concentration of 0.02 mg/ml (1% DMSO). Eight hours later, the cells were harvested, and the pellets frozen in dry ice and stored at −80° C. […] To prepare the cell extracts, the frozen cell pellets were thawed in TBS (+protease inhibitor) buffer and cells were homogenized with 0.1% TX-100, incubated 15 minutes at 4° C. and extracts were clarified by centrifugation 20000 g for 15 min at 4° C. Protein concentrations were normalized using a Direct Detect Spectrometer (Merck Millipore).
The 7 selected compounds as well as the first generation pharmacological chaperones (Compounds III and IV) were further analyzed in the presence and absence of BH2 (200 μM), added as precursor of BH4, to account for additive effects. […]
as §1, with “and the compounds were” for “and the test compounds were”, “concentration of 0.04 mg/ml (1%” for “concentration of 0.02 mg/ml (1%”, “for 15 minutes at 4°” for “for 15 min at 4°”

[2] = target: dihydrofolate reductase (DHFR); settings: read-out: IC50 (DHFR); ChEMBL database; cited from earlier work
human wild-type PAH [3] = target: T2, human wild-type PAH; test: PAH immunoreactive protein level (Western blot) in HEK293 cells permanently expressing human wild-type PAH; format: cell-based; settings: BH2 200 μM alone, 8 h, 1% DMSO
Experimental: as §1
The 7 selected compounds as well as the first generation pharmacological chaperones (Compounds III and IV) were further analyzed in the presence and absence of BH2 (200 μM), added as precursor of BH4, to account for additive effects. A higher concentration of compound was also used 0.04 mg/ml (average of 116.7 μM) at otherwise same experimental conditions.

I65T-PAH = target: T3, I65T-PAH (Homo sapiens, UniProt P00439, I65T); test: PAH protein level and activity in HEK293 EBNA cells transiently expressing PKU mutant I65T; format: cell-based; settings: 200 μM, 24 h, 1% DMSO
T3 construct: expressed in transfected cells; host or cells: HEK293 EBNA, transient, pcDNA3-PAH
T3 sequence (P00439 1-452 I65T): T1 sequence (P00439 1-452) with I65T
Experimental: (§2) Cell lysates were prepared as indicated above.

R261Q-PAH = target: T4, R261Q-PAH (Homo sapiens, UniProt P00439, R261Q); test: PAH protein level and activity in HEK293 EBNA cells transiently expressing PKU mutant R261Q; format: cell-based; settings: 200 μM, 24 h, 1% DMSO
T4 construct: expressed in transfected cells; host or cells: HEK293 EBNA, transient, pcDNA3-PAH
T4 sequence (P00439 1-452 R261Q): T1 sequence (P00439 1-452) with R261Q
Experimental: as §2

SMILES | Kd (hPAH) [µM] | PAH activity-cells (%) (human wild-type PAH [1]) | further results
COc1cc(Cc2ccc(N)nc2N)cc(OC)c1OC [c53.4] | 45.2 ± 9.1 | 165 ± 28 | increase of hPAH activity with respect to the control (FIG. 6) (human wild-type PAH [1]): around 40%
COc1cc(C(c2c[nH]c3ccccc23)c2c[nH]c3ccccc23)cc(OC)c1OC [c53.5] | 370 ± 228 | – | –
CSc1nc2c(c(=O)[nH]1)C(c1ccc3c(c1)OCO3)CC(=O)N2 (racemic) [c53.26] | 62.1 ± 30.7 | 109 ± 5 | –
Nc1nc2c(c(=O)[nH]1)C(c1ccc3c(c1)OCO3)CC(=O)N2 (racemic) [c53.35] | 23.7 ± 5 | – | –
COc1ccc(C2CC(=O)Nc3nc(N)ccc32)c(OC)c1OC (racemic) [c53.33] | 182 ± 32 | – | –
COc1cccc(C2CC(=O)Nc3nc(N)[nH]c(=O)c32)c1 (racemic) [c53.20] | 23.2 ± 11.7 | 206 ± 5 | –
Nc1nc2c(c(=O)[nH]1)C(c1cccc3ccccc13)CC(=O)N2 (racemic) [c53.41] | 12.6 ± 6.4 | – | –
Nc1nc2c(c(=O)[nH]1)C(c1cccc(Cl)c1)CC(=O)N2 (racemic) [c53.40] | 11.6 ± 1.6 | – | –
Nc1nc(N)c(Cc2ccc3c(c2)OCO3)c(N)n1 [c53.14] | 24.7 ± 12.1 | 175 ± 23 | –
Nc1nc2c(c(=O)[nH]1)C(c1ccc3c(c1)OCO3)CC(=O)N2 (racemic) [c53.17] | 11 ± 3.7 | 206 ± 10 | –
Nc1nc2c(c(=O)[nH]1)C(c1ccc(Cl)cc1)CC(=O)N2 (racemic) [c53.22] | 30.1 ± 6.5 | 154 ± 16 | –
Nc1nc2c(c(=O)[nH]1)C(c1ccc(Cl)cc1Cl)CC(=O)N2 (racemic) [c53.10] | 22.9 ± 2.7 | 155 ± 13 | increase of hPAH activity with respect to the control (FIG. 6) (human wild-type PAH [1]): around 40%
COc1cc(Cc2ccc(N)nc2N)cc(OC)c1O [CHEMBL 128600] | – | – | IC50 [2]: 10 mM
COc1ccc(C2CC(=O)Nc3nc(N)[nH]c(=O)c32)cc1OC (racemic) [c53.16] | 76.3 ± 26.4 | 146 ± 10 | –
COc1ccc(C2CC(=O)Nc3nc(N)ccc32)cc1O (racemic) [c53.31] | 55.9 ± 6.7 | 125 ± 8 | –
COc1ccc(Cc2cnc(N)nc2N)cc1OC [c53.1] | 104 ± 14 | 130 ± 8 | –
Nc1ccc2c(n1)NC(=O)CC2c1ccc2c(c1)OCCO2 (racemic) [c53.32] | 102 ± 11 | – | –
COc1ccc(C2CC(=O)Nc3nc(N)[nH]c(=O)c32)cc1 (racemic) [c53.19] | 37.2 ± 23.7 | 170 ± 17 | –
C[C@H](O)[C@H](O)C1=Nc2c(nc(N)[nH]c2=O)NC1 [BH2] | – | – | SPR screening response (blank-subtracted, MW-adjusted, solvent-corrected) (hPAH; 200 μM, 5% DMSO, duplicates, cut-off 8.27): 2.88 RU; stimulating effect on PAH activity (human wild-type PAH [1]; BH2 200 μM alone): 21.7%; stimulating effect on PAH protein (human wild-type PAH [3]): 24.8%; PAH activity, mutant I65T (I65T-PAH): increased; hPAH protein level, mutant I65T (I65T-PAH): increased; PAH activity, mutant R261Q (R261Q-PAH): increased; hPAH protein level, mutant R261Q (R261Q-PAH): increased
COc1cc(C2CC(=O)Nc3nc(N)ccc32)cc(Cl)c1OC (racemic) [c53.29] | 191 ± 20 | 155 ± 7 | –
CCOc1ccc(Cc2cnc(S)nc2N)cc1 [c53.6] | 103 ± 48.8 | 120 ± 12 | –
Nc1ncc(Cc2ccc3c(c2)OCO3)c(N)n1 [c53.7] | 6.9 ± 4.9 | 119 ± 5 | –
